Patent publication US20110045102A1, “Cancer chemotherapy compositions comprising PI3K pathway modulators and triptolide” (priority 2005, published 2011)

What was measured:
[1] = test system: OCC1-SEAP-12 ovarian cancer cells; type: in vivo
Description: Athymic nude mice were obtained and inoculated intraperitoneally with OCC1-SEAP-12 cells as described above in Examples I and II. Animals received injections of either vehicle control (PBS containing 25% DMSO), or carboplatin (60 mg/kg) alone, or in combination with LY294002 (50 mg/kg) every other day for 6 days. Blood samples were collected into capillary tubes from saphenous vein lancings at regular intervals during and following treatments. Capillary tubes were centrifuged, and the plasma samples were frozen (−20° C.), until the time of SEAP assay. The Washington State University Animal Care and Use Committee approved all procedures.
Blood plasma and cell culture medium samples were assayed for SEAP activity using the Great EscAPe SEAP fluorescence detection kit (Clontech Laboratories, Palo Alto, Calif.) as described above in Examples I and II. Blood plasma samples were diluted 1:100 prior to the assay to bring values within the linear range of the standard curve. The intraassay and interassay coefficients of variation were 2.5% and 18.8%, respectively.

Akt = assay: Western blot for Akt phosphorylation (Example III); type: cell-based, human; settings: 6 hr and 24 hr; LY294002 10 (FIG. 18 legend: mM), carboplatin 50
Description: The OCC1-SEAP-12 cells were grown to 80% confluence. […] […] Total cell lysates were subjected to SDS polyacrylamide gel electrophoresis 9 page) and transferred to PVDF membranes (Millipore, Bedford, Mass.). Membranes were immunoblotted with antibodies to both the phosphorylated and non-phosphorylated forms of […] (Cell Signaling Technology, Beverly, Mass.), or alternatively, with antibodies to cleaved and full length caspase-3 (Cell Signaling Technology, Beverly, Mass.).

[2] = test system: OCC1-SEAP ovarian cancer cells; assay: Cell survival by DNA content of culture wells (Example II); type: cell-based, human; settings: 48 hours; triptolide 100 ng/ml, carboplatin 50 (FIG. 8 legend: mg/ml)
Description: Cell survival was assessed as the number of cells remaining in culture, following exposure to treatments. The DNA content of individual culture wells was used as an indication of cell number. Cells plated in 24 well culture plates were allowed to approach confluence (80%) in Ham's F-12 medium plus 10% BCS. Cultures were then incubated in DMEM, plus 0.1% BSA and 0.1% BCS, in the presence of vehicle control, carboplatin (0-100 μg/ml), Triptolide (100 ng/ml) or a combination of these for 24 to 96 hrs. Media aliquots were taken when appropriate for SEAP analysis. The DNA was measured fluorometrically, as described above, in Example I. Briefly, the fluorescence of an aliquot of sonicated cell suspension, into which SYBR Green I fluorescent dye (Molecular Probes, Eugene, Oreg.), had been incorporated was measured.

OCC1-SEAP tumor = assay: Nude mouse tumor model, intraperitoneal OCC1-SEAP cells, plasma SEAP (Example II); type: in vivo; settings: carboplatin 60 mg/kg every other day for 5 days
Source text: Athymic nude mice (NCR Nu/Nu) were either purchased from Taconic (Germantown, N.Y.) or bred in-house at Washington State University, Pullman, Wash. The OCC1-SEAP cells were collected in Hank's balanced salt solution and counted prior to injection. Treatments were initiated 7 to 10 days following an intraperitoneal inoculation of mice with 1×10^7 OCC1-SEAP cells, as described above, in Example I.
Stock solutions of carboplatin (paraplatin; Bristol-Myers Squibb, Princeton, N.J.) and TPL (Calbiochem, CA), were prepared in sterile filtered PBS and DMSO, respectively. Animals received intraperitoneal injections of either vehicle controlled (PBS containing 4% DMSO), or carboplatin (60 mg/kg), alone, or in combination with TPL (0-1.0 mg/kg), every other day for 5 days. Alternatively, TPL (0.15 mg/kg) was injected every day for 10 days. For these experiments, carboplatin was administered under the same schedule of every other day for 5 days. Some mice were also treated with 40 mg/kg of LY294002 every other day for 5 days, with an intraperitoneal injection in the presence of TPL and carboplatin. Blood samples were collected into capillary tubes from saphenous vein lancings at regular intervals during and following treatments. The capillary tubes were centrifuged and the plasma samples were frozen at −20° C., until the time of SEAP assay. The Washington State University Animal Care and Use Committee approved all procedures.
Blood plasma and cell culture medium samples were assayed for SEAP activity using the Great EscAPe SEAP fluorescence detection kit (Clontech Laboratories, Palo Alto, Calif.), as described above in Example I. Blood plasma samples were diluted 1:100, prior to the assay to bring values within the linear range of the standard curve. The intraassay and interassay coefficients of variation were 2.5% and 18.8%, respectively. In the case of the experiments in which mice were treated with a combination of TPL, LY294002 and carboplatin, there was some variation in the extent of tumor growth in the control mice. In order to better compare response to treatment across experiments, the SEAP assay data between experiments were normalized by dividing each data point by the overall mean of all SEAP measurements from that experiment and up, through day 18. The normalized data then reflect the relative tumor burden of each mouse, compared to others in the experimental group, and can be combined across experiments.

OCC1-SEAP-12 cells = assay: Growth assay, [3H] thymidine incorporation (Example III); type: cell-based, human; settings: 18h treatment
Description: Cell proliferation was analyzed by determining the amount of [^3H] thymidine incorporation Into newly synthesized DNA. The OCC1-SEAP-12 cells were plated in 24 well plates in Ham's F-12 medium plus 10% BCS and allowed to reach 50 to 70% confluence. Following a 48 hr serum starvation, the culture medium was changed to Dulbecco's Modified Eagle Medium (DMEM) plus 0.1% BSA and 0.1% BCS containing either vehicle control or carboplatin (0-100 μg/ml) alone, or in combination with LY294002 (0-20 μM). Treatments were removed after 18h and cells were incubated for 4 hr in medium containing 5 μCi/ml of [^3H] thymidine. Medium was removed and cells were disrupted by sonication in phosphate buffered saline (PBS). An aliquot of the sonicated solution of PBS was loaded onto a DEAE filtration plate (Millipore, Bedford, Mass.), and individual filters with bound DNA were collected for scintillation counting. Data was normalized to total DNA per well and was determined by a SYBR green fluorescent assay (Nilsson E E, Westfall S D, McDonald C, Ligon T, Sadler-Riggleman I, Skinner M K. An in vivo mouse reporter gene (human secreted alkaline phosphatase) model to monitor ovarian tumor growth and response to therapeutics. Cancer Chemother Pharmacol 2002; 49(2):93-100).

N.N.O=C([O-])C1(C(=O)[O-])CCC1.[Pt+2] [carboplatin]
drug induced toxicity ([1]; carboplatin 60 mg/kg, alone or with LY294002 50 mg/kg): muscle wasting and became anemic | abdominal swelling (FIG. 24) ([1]; physical appearance of mice after treatment): displayed abdominal swelling | tumor size vs vehicle control (FIG. 23) ([1]; single agents: LY294002 50 mg/kg, carboplatin 60 mg/kg): no significant difference | Akt phosphorylation (Akt): had not effect | decrease in cell survival (μg DNA/ml) compared to control cultures [2]: 30% | tumor burden vs vehicle control (FIG. 11) (OCC1-SEAP tumor; high dose, short duration: TPL 0.5 mg/kg): no significant difference | tumor burden as measured by SEAP levels vs vehicle control (FIG. 12) (OCC1-SEAP tumor; low dose, long duration: TPL 0.15 mg/kg every day for 10 days): no significant difference | block of basal DNA synthesis (OCC1-SEAP-12 cells; 20 μg/ml carboplatin): 51% | block of basal DNA synthesis (OCC1-SEAP-12 cells; 50 μg/ml carboplatin): 59.5%
